# Source: EP0316212B1 (priority 1987, dated 1989)
# Where two headings read alike, the source gives them in different places.
# Experiments:
# Cellules B = experiment: Proliferation of mouse B cells (3H-thymidine incorporation); format: cell-based, souris; conditions: for inhibition at 200 µg/mL: B-cell, read-out: pourcentage d'augmentation (+) ou d'inhibition (-) de la prolifération
# From the text: Les anticorps utilisés sont des anticorps monoclonaux (AM) naturels (N5-12, N5-17, MO-1, 62-1, D-23) et proviennent d'hybridomes préparés par fusion des cellules de rate de souris n'ayant reçu aucune immunisation au préalable ni aucune stimulation mitogénique, avec le myélome de souris X63-Ag8. Les hybridomes TNP11 et TNP9 proviennent de fusion des cellules de rate de souris immunisées avec du Ficoll-TNP. Ils ont été maintenus en culture dans le milieu RPMI complet contenant 10% de sérum de veau foetal. Les hybridomes ont été injectés à des souris Balb/c préalablement traitées au pristane dans le but d'obtenir des ascites. Les AM ont été utilisés en tant que surnageants de culture ou en tant qu'ascites ou après isolement par chromatographie d'affinité sur une colonne de DNP-Sépharose. Ces anticorps ont été testés par test immunoenzymatique sur différents antigènes immobilisés sur des plaques de polystyrène et révélés par un anticorps anti-Ig de souris couplé à la β-galactosidase.
# Le TNP a été couplé à la sérumalbumine bovine (BSA) par la méthode de Little & Eisen : 1ml de BSA à 20mg/ml dans le tampon carbonate-bicarbonate, 0,1M, pH 9,5, est ajouté à 1ml d'une solution d'acide trinitrobenzène sulfonique à 2 mg/ml dans le même tampon. La réaction est arrêtée après 30 à 120 minutes selon la substitution voulue par élimination de l'excès de réactifs sur échangeur d'ions (Dowex 1 x 4) puis dialyse. Des préparations de BSA substituée avec soit 14 ou 30 molécules de TNP par molécule de BSA (TNP₁₄-BSA ou TNP₃₀-BSA) ont été utilisées.
# Le DNP-Glycine (DNP-Gly) et le DNP-Lysine (DNP-Lys) proviennent des Laboratoires Sigma et sont solubilisés directement dans le milieu de culture.
# Les cellules proviennent de rate ou de thymus de souris. Les souris sont tuées par dislocation cervicale et leur rate ou leur thymus prélevé stérilement sont déposés dans du milieu RPMI. Les cellules sont dissociées, lavées une fois avec du milieu puis les globules rouges sont lysés au chlorure d'ammonium (0,9%) pendant 1 minute à froid puis les cellules sont relavées dans le milieu complet.
# Les sous-populations de cellules B ou T sont ensuite séparées comme suit : • Sous-population T : les cellules T sont obtenues à partir de la population de cellules de la rate par élimination des cellules portant des Ig à leur surface (sous-population B) sur des anticorps anti-Ig de souris immobilisés soit sur des billes magnétiques (Magnogel)® soit sur des boites de Pétri. • Sous-population B : les cellules B sont obtenues après détachement mécanique des supports dur lesquels elles étaient fixées par l'intermédiaire des anticorps anti-Ig (après l'isolement des cellules T), ou après élimination de la sous-population des cellules T de la population totale des cellules de rate par un traitement avec un anticorps anti-cellules T suivi de complément de cobaye. • Thymocytes : les thymocytes sont dissociés dans le RPMI et les cellules isolées sont lavées dans le milieu complet avant d'être mises en culture.
# Le milieu de culture utilisé est du RPMI 1640 contenant du sérum de veau foetal (5%), du pyruvate de sodium (1mM), de la L-glutamine (1mM), du 2-mercaptoethanol (0,05 mM), de la pénicilline (100»g/ml) et de la streptomycine (50»g/ml).
# 2x10⁵ cellules de chaque population cellulaire ou 4x10⁵ de cellules de rate non fractionnées sont distribuées sous un volume final de 200»l dans des boîtes de culture de 96 puits à fond plat en présence ou non des différents stimulateurs (ou mitogènes)(40»g/ml de lipopolysaccharide W Salmonella typhosa 2»g/ml de concanavaline A, ou des surnageants de culture contenant les anticorps monoclonaux à différentes dilutions ou une solution de TNP-BSA à des concentrations finales allant de 200ng à 200»g/ml). Les cultures sont effectuées pendant 48 à 96 heures à 37°C dans une atmosphère de 5% de CO2.
# Six à huit heures avant la fin de la culture, 100»l de surnageant sont prélevés de chaque puits de culture afin d'être testés quant à leur contenu en anticorps. […]
# [1] = system: virus de la chorioméningite lymphocytaire (CML); experiment: organism not typed; format: cell-based; conditions: for % Inhibition: ajoutés après l'infection virale
# [2] = system: EMCV (Encephalomyocarditis Virus); experiment: microbe, parasite or virus in culture; format: cell-based
# [3] = 3 (µg/ml), LPS* (mitogène ajouté après 48 heures)
# [4] = 12 (µg/ml), LPS* (mitogène ajouté après 48 heures)
# [5] = 50 (µg/ml), LPS* (mitogène ajouté après 48 heures)
# [6] = 200µg/ml, LPS* (mitogène ajouté après 48 heures)
compound,measurement,setting,value
"O=C(O)CNc1ccc([N+](=O)[O-])cc1[N+](=O)[O-] [DNP-glycine, DNP-Glycine]",pourcentage d'augmentation (+) ou d'inhibition (-) de la prolifération,Cellules B; [3],-7%
same,pourcentage d'augmentation (+) ou d'inhibition (-) de la prolifération,"Cellules B; 3 (µg/ml), M (milieu seul)",-25%
same,pourcentage d'augmentation (+) ou d'inhibition (-) de la prolifération,Cellules B; [4],-40%
same,pourcentage d'augmentation (+) ou d'inhibition (-) de la prolifération,"Cellules B; 12 (µg/ml), M (milieu seul)",-50%
same,pourcentage d'augmentation (+) ou d'inhibition (-) de la prolifération,Cellules B; [5],-64%
same,pourcentage d'augmentation (+) ou d'inhibition (-) de la prolifération,"Cellules B; 50 (µg/ml), M (milieu seul)",-60%
same,inhibition at 200 µg/mL,Cellules B; [6],-80%
same,inhibition at 200 µg/mL,"Cellules B; 200µg/ml, M (milieu seul)",-90%
same,inhibition at 10 µg/mL,[1],10%
same,inhibition at 30 µg/mL,[1],17%
same,inhibition at 60 µg/mL,[1],34%
same,inhibition at 120 µg/mL,[1],36%
same,inhibition at 240 µg/mL,[1],54%
same,inhibition at 480 µg/mL,[1],63%
same,inhibition du virus (result in words),[1]; ajouté à la culture cellulaire après l'infection virale,peut inhiber le virus même s'il est ajouté à la culture cellulaire après l'infection virale
same,minimal effective concentration,"[2]; Cardiovirus A, L929, 24 h, read-out: séroneutralise jusqu'à une concentration de",600 µg/mL
same,inhibition at 30 µg/mL,"[2]; Cardiovirus A, L929, 0,03 mg/ml",0%
same,inhibition at 300 µg/mL,"[2]; Cardiovirus A, L929, 0,3 mg/ml",32%
same,inhibition at 600 µg/mL,"[2]; Cardiovirus A, L929, 0,6 mg/ml",62%
same,inhibition at 70 µg/mL,"[2]; Cardiovirus A, L929, 0,07 mg/ml",0%
same,inhibition at 150 µg/mL,"[2]; Cardiovirus A, L929, 0,15 mg/ml",20%
same,inhibition at 1200 µg/mL,"[2]; Cardiovirus A, L929, 1,2 mg/ml",78%
TNP-BSA,pourcentage d'augmentation (+) ou d'inhibition (-) de la prolifération,Cellules B; [6],+18%
same,pourcentage d'augmentation (+) ou d'inhibition (-) de la prolifération,"Cellules B; 200µg/ml, M (milieu seul)",+100%
same,pourcentage d'augmentation (+) ou d'inhibition (-) de la prolifération,Cellules B; [3],0%
same,pourcentage d'augmentation (+) ou d'inhibition (-) de la prolifération,"Cellules B; 3 (µg/ml), M (milieu seul)",0%
same,pourcentage d'augmentation (+) ou d'inhibition (-) de la prolifération,Cellules B; [4],0%
same,pourcentage d'augmentation (+) ou d'inhibition (-) de la prolifération,"Cellules B; 12 (µg/ml), M (milieu seul)",0%
same,pourcentage d'augmentation (+) ou d'inhibition (-) de la prolifération,Cellules B; [5],0%
same,pourcentage d'augmentation (+) ou d'inhibition (-) de la prolifération,"Cellules B; 50 (µg/ml), M (milieu seul)",+50%
same,% Inhibition,[1]; 0.5 mg/ml,0%
same,% Inhibition,[1]; 1mg/ml,17%
same,% Inhibition,"[2]; 0,03 mg/ml",0%
same,% Inhibition,"[2]; 0,5 mg/ml",8%
same,% Inhibition,"[2]; 0,06 mg/ml",0%
same,% Inhibition,"[2]; 0,12 mg/ml",0%
same,% Inhibition,"[2]; 0,25 mg/ml",0%
same,% Inhibition,"[2]; 1,0 mg/ml",4%
same,% Inhibition,"[2]; 2,0 mg/ml",14%
